The target of data set [1] is T1, MeaB (Methylorubrum extorquens, UniProt C5AP93).
T1 sequence (C5AP93 1-329): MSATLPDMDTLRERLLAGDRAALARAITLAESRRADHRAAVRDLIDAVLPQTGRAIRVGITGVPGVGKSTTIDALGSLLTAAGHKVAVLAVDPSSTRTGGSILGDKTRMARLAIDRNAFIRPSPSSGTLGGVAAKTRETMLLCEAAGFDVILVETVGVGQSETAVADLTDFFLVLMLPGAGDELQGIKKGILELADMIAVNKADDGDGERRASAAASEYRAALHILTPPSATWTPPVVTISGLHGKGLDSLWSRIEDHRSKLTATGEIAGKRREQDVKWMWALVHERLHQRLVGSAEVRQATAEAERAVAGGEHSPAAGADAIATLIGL
Description: isothermal titration calorimetry. Format: binding. Background: Isothermal titration calorimetry measures the heat released or taken up as one component is titrated into another.

Data set [2] concerns the molecule itself. Description: crystal structure.

Here are results for 3 molecules from publication PMC3752380 (Nature chemical biology, 2013).

On to `Nc1nc2c(ncn2[C@@H]2O[C@H](COP(=O)(O)OP(=O)(O)O)[C@@H](O)[C@H]2O)c(=O)[nH]1` [GDP], for which, in data set [1], the Kd is 1400 ± 100 nM.

The molecule `Nc1nc2c(ncn2[C@@H]2O[C@H](COP(=O)(O)OP(=O)(O)NP(=O)(O)O)[C@@H](O)[C@H]2O)c(=O)[nH]1` [GMPPNP] had a Kd in data set [1] of 900 ± 200 nM.

B1: MeaB (Methylobacterium extorquens AM1), wild type (natural protein)
chain: T1 sequence (C5AP93 1-329)
Take B1: the binding result in data set [2] is “binds”.

The term Kd denotes the equilibrium constant for the complex coming apart.
